For experiment [1], the target named is T1, acetylcholinesterase (Rattus norvegicus, UniProt P37136).
T1 construct: The acetylcholinesterase used in this test was obtained from rat's corpus striatum; from tissue; host or cells: rat corpus striatum
T1 sequence (P37136 32-614): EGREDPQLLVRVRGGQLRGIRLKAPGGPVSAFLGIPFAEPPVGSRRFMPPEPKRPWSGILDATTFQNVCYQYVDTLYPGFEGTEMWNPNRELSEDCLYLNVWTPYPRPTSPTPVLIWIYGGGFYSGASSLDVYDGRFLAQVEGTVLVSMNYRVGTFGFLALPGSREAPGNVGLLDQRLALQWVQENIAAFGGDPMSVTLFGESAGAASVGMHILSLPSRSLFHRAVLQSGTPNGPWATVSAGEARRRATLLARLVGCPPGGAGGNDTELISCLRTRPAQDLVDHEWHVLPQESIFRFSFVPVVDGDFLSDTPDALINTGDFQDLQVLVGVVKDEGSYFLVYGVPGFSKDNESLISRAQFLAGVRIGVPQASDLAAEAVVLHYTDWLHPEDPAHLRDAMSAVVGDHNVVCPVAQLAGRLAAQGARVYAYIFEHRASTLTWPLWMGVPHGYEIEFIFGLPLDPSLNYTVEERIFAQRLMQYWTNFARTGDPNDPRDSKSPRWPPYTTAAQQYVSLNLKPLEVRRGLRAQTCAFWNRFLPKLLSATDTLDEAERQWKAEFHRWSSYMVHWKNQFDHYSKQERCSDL
Nature of the experiment: Inhibition of acetylcholinesterase (enzyme assay). The class given is biochemical. On the procedure:
The ability to inhibit acetylcholinesterase was determined by the method (enzyme assay) described in Clinica Chimica Acta, 115 (1981) 163-170. The acetylcholinesterase used in this test was obtained from rat's corpus striatum.

The subject of experiment [2] is deficit of memory induced by cycloheximide. Nature of the experiment: Passive avoidance test. The conditions noted are these: Dose 0.032 mg/kg i.p.; ddY strain male mice given cycloheximide 30 mg/kg S.C.; step-down latency 24 hours after training. The class given is in vivo. An excerpt:
6-Weeks old ddY strain male mice (20 per group) were used. The effect of the test compound on deficit of memory induced by cycloheximide (a protein synthesis inhibitor) in passive avoidance task was examined.
The apparatus consists of a grid floor enclosed by a transparent acryl glass wall each section of which was 30 cm². At the center of this grid a wooden platform of 4 x 4 x 4 cm was fixed. This apparatus was set in a wooden semisoundproof box of 35 x 35 x 90 cm fitted with a 15W tungsten lamp.
Each mouse in groups (A), (B) and (C) was placed on the platform.
When the mouse stepped down from the platform and placed all its paws on the grid floor, an intermittent electrical footshock (1Hz, 0.5 sec, 60V, DC) was delivered for 15 seconds through the grid floor. […]
24 Hours after the training, each mouse was placed again on the platform and the response latency to step down from the platform was measured to an extent of 300 seconds at the longest.
Results were recorded as the mean response latency of step down for each experimental group of mice. […]

Usually IC50 stands for the concentration needed to halve the response being measured. Read a high IC50 as weaker potency. `Cc1ccc2c(N)c3c(nc2c1)CC(C)(C)CC3O` (racemic) [(±)-9-Amino-1-hydroxy-3,3,6-trimethyl-1,2,3,4-tetrahydroacridine] returned an IC50 in experiment [1] of 0.87 µM. Consider `CC1(C)CCc2c(nc3cc(Cl)ccc3c2N)C1` [9-Amino-6-chloro-3,3-dimethyl-1,2,3,4-tetrahydroacridine], for which the “Percentage of Recovery (%)” value in experiment [2] is given as 95%.

The values are drawn from patent EP0371388A2, “Acridine derivatives” (FUJISAWA PHARMACEUTICAL CO., LTD., priority 1988, dated 1990).
